In patent publication US11414424B2, “Cardiac sarcomere inhibitors” (Cytokinetics, Inc., priority 2018, dated 2022):

Test system: bovine cardiac myofibrils
Assay: Myofibril assay: PK/LDH-coupled steady-state ATPase activity of skinned bovine cardiac myofibrils
Format: biochemical
Conditions: Ca2+ activating to 75% of maximal rate
Protocol: To evaluate the effect of compounds on the ATPase activity of full-length cardiac myosin in the context of the native sarcomere, skinned myofibril assays were performed. Bovine cardiac myofibrils were obtained by homogenizing bovine cardiac left ventricular tissue in the presence of a detergent such as triton X-100. Such treatment removes membranes and a majority of the soluble cytoplasmic proteins but leaves intact the cardiac sarcomeric acto-myosin apparatus. Myofibril preparations retain the ability to hydrolyze ATP in a Ca^2+ regulated manner. ATPase activities of such myofibril preparations in the presence and absence of compounds were assayed at Ca^2+ concentrations activating to a defined fraction of the maximal rate (i.e., […], 75%). Small molecule agents were assessed for their ability to inhibit the steady-state ATPase activity of bovine cardiac myofibrils using pyruvate kinase and lactate dehydrogenase (PK/LDH)-coupled enzyme system. This assay regenerates myosin-produced ADP into ATP by oxidizing NADH, producing an absorbance change at 340 nm. Prior to testing small molecule agents, the bovine cardiac myofibrils were assessed for their calcium responsiveness and the calcium concentration that achieves either a 50% (pCa50) or 75% (pCa75) activation of the myofibril system was chosen as the final condition for assessing the inhibitory activity of the small molecule agents. All enzymatic activity was measured in a buffered solution containing 12 mM PIPES (piperazine-N,N′-bis(2-ethanesulfonic acid), 2 mM magnesium chloride at pH 6.8 (PM 12 buffer). Final assay conditions were 1 mg/mL of bovine cardiac myofibrils, 4 U/mL pyruvate kinase, 6 U/mL lactate dehydrogenase, 50 μM ATP, 0.1 mg/mL BSA (bovine serum albumin), 10 ppm antifoam, 1 mM DTT, 0.5 mM NADH, 1.5 mM PEP, 0.6 mM EGTA, and an amount of CaCl2 sufficient to achieve either 50% or 75% activation of the myofibril ATPase activity. Results for compounds tested are provided in Table A. Compounds tested were prepared in accordance with the synthetic procedures described herein.

Row | CDMF75 IC15 | Structure (SMILES)
1 | 18.7 µM | CC(=O)NCC1(C)C(=O)N(c2ncc(Cl)cc2F)CC(=O)N1Cc1ccc(C(F)(F)F)cc1 (racemic) [Compound 630, N-((4-(5-chloro-3-fluoropyridin-2-yl)-2-methyl-3,6-dioxo-1-(4-(trifluoromethyl)benzyl)piperazin-2-yl)methyl)acetamide]
2 | 27.6 µM | Cc1cnc(N2CC(=O)N(Cc3ccc(C(F)(F)F)cc3)C(C3COC3)C2=O)c(F)c1 (racemic) [Compound 691, 1-(3-fluoro-5-methylpyridin-2-yl)-3-(oxetan-3-yl)-4-(4-(trifluoromethyl)benzyl)piperazine-2,5-dione]
3 | 10.1 µM | COc1cnc(N2CC(=O)N(Cc3ccc(C(F)(F)F)cc3)C(C3COC3)C2=O)c(F)c1 (racemic) [Compound 703, 1-(3-fluoro-5-methoxypyridin-2-yl)-3-(oxetan-3-yl)-4-(4-(trifluoromethyl)benzyl)piperazine-2,5-dione]
4 | 8.8 µM | CC(C)N1CC(=O)N(Cc2ccc(Cl)cc2)C2(CCN(C(N)=O)C2)C1=O (single isomer, unassigned) [Compound 367A, 6-[(4-chlorophenyl)methyl]-7,10-dioxo-9-(propan-2-yl)-2,6,9-triazaspiro[4.5]decane-2-carboxamide]
5 | >39 µM | CC(C)N1CC(=O)N(Cc2ccc(Cl)cc2)C2(CCN(C(N)=O)C2)C1=O (single isomer, unassigned) [Compound 367B, 6-[(4-chlorophenyl)methyl]-7,10-dioxo-9-(propan-2-yl)-2,6,9-triazaspiro[4.5]decane-2-carboxamide]
6 | >39 µM | CC(C)N1CC(=O)N(Cc2ccc(Cl)cc2)C2(CCN(c3ccccn3)C2)C1=O (single isomer, unassigned) [Compound 373B, 6-[(4-chlorophenyl)methyl]-9-(propan-2-yl)-2-(pyridin-2-yl)-2,6,9-triazaspiro[4.5]decane-7,10-dione]
7 | 0.7 µM | O=C1CN(c2ccc(Cl)cc2F)C(=O)[C@]2(C[C@@H](O)C2)N1Cc1ccc(C(F)(F)F)cc1 (single isomer, unassigned) [Compound 483B]
8 | 0.2 µM | COC(=O)[C@H]1C[C@]2(C1)C(=O)N(c1ccc(C#N)cc1F)CC(=O)N2Cc1ccc(Cl)cc1 (single isomer, unassigned) [Compound 488B]
9 | 0.4 µM | N#Cc1ccc(N2CC(=O)N(Cc3ccc(Cl)cc3)[C@]3(C[C@H](C(=O)N4CCC(O)CC4)C3)C2=O)c(F)c1 (single isomer, unassigned) [Compound 492B]
10 | 35.5 µM | Cc1nc([C@H]2C[C@]3(C2)C(=O)N(C(C)C)CC(=O)N3Cc2ccc(C(F)(F)F)cc2)oc1C (single isomer, unassigned) [Compound 500B]
11 | 9.7 µM | CC(=O)NCC1(C)C(=O)N(c2ncc(Cl)cc2F)CC(=O)N1Cc1ccc(C(F)(F)F)cc1 (single isomer, unassigned) [Compound 630A, N-((4-(5-chloro-3-fluoropyridin-2-yl)-2-methyl-3,6-dioxo-1-(4-(trifluoromethyl)benzyl)piperazin-2-yl)methyl)acetamide]
12 | >39 µM | CC(=O)NCC1(C)C(=O)N(c2ncc(Cl)cc2F)CC(=O)N1Cc1ccc(C(F)(F)F)cc1 (single isomer, unassigned) [Compound 630B, N-((4-(5-chloro-3-fluoropyridin-2-yl)-2-methyl-3,6-dioxo-1-(4-(trifluoromethyl)benzyl)piperazin-2-yl)methyl)acetamide]
13 | 12.06 µM | Cc1cnc(N2CC(=O)N(Cc3ccc(C(F)(F)F)cc3)C(C3COC3)C2=O)c(F)c1 (single isomer, unassigned) [Compound 691A, 1-(3-fluoro-5-methylpyridin-2-yl)-3-(oxetan-3-yl)-4-(4-(trifluoromethyl)benzyl)piperazine-2,5-dione]
14 | >39 µM | Cc1cnc(N2CC(=O)N(Cc3ccc(C(F)(F)F)cc3)C(C3COC3)C2=O)c(F)c1 (single isomer, unassigned) [Compound 691B, 1-(3-fluoro-5-methylpyridin-2-yl)-3-(oxetan-3-yl)-4-(4-(trifluoromethyl)benzyl)piperazine-2,5-dione]
15 | 4.0 µM | COc1cnc(N2CC(=O)N(Cc3ccc(C(F)(F)F)cc3)C(C3COC3)C2=O)c(F)c1 (single isomer, unassigned) [Compound 703A, 1-(3-fluoro-5-methoxypyridin-2-yl)-3-(oxetan-3-yl)-4-(4-(trifluoromethyl)benzyl)piperazine-2,5-dione]
16 | 37.2 µM | COc1cnc(N2CC(=O)N(Cc3ccc(C(F)(F)F)cc3)C(C3COC3)C2=O)c(F)c1 (single isomer, unassigned) [Compound 703B, 1-(3-fluoro-5-methoxypyridin-2-yl)-3-(oxetan-3-yl)-4-(4-(trifluoromethyl)benzyl)piperazine-2,5-dione]
17 | 1.1 µM | O=C1C(C2CC(O)C2)N(Cc2ccc(C(F)(F)F)cc2)C(=O)CN1c1ncc(Cl)cc1F (single isomer, unassigned) [Compound 740A, 1-(5-chloro-3-fluoropyridin-2-yl)-3-(3-hydroxycyclobutyl)-4-(4-(trifluoromethyl)benzyl)piperazine-2,5-dione]
18 | 0.97 µM | O=C1C(C2CC(O)C2)N(Cc2ccc(C(F)(F)F)cc2)C(=O)CN1c1ncc(Cl)cc1F (single isomer, unassigned) [Compound 740B, 1-(5-chloro-3-fluoropyridin-2-yl)-3-(3-hydroxycyclobutyl)-4-(4-(trifluoromethyl)benzyl)piperazine-2,5-dione]
19 | >39 µM | O=C1C(C2CC(O)C2)N(Cc2ccc(C(F)(F)F)cc2)C(=O)CN1c1ncc(Cl)cc1F (single isomer, unassigned) [Compound 740C, 1-(5-chloro-3-fluoropyridin-2-yl)-3-(3-hydroxycyclobutyl)-4-(4-(trifluoromethyl)benzyl)piperazine-2,5-dione]
20 | >39 µM | O=C1C(C2CC(O)C2)N(Cc2ccc(C(F)(F)F)cc2)C(=O)CN1c1ncc(Cl)cc1F (single isomer, unassigned) [Compound 740D, 1-(5-chloro-3-fluoropyridin-2-yl)-3-(3-hydroxycyclobutyl)-4-(4-(trifluoromethyl)benzyl)piperazine-2,5-dione]
21 | 5.3 µM | O=C1C(CO)N(Cc2ccc(C(F)(F)F)cc2)C(=O)CN1c1ncc(Cl)cc1F (single isomer, unassigned) [Compound 857A, 1-(5-chloro-3-fluoropyridin-2-yl)-3-(hydroxymethyl)-4-(4-(trifluoromethyl)benzyl)piperazine-2,5-dione]
22 | >39 µM | O=C1C(CO)N(Cc2ccc(C(F)(F)F)cc2)C(=O)CN1c1ncc(Cl)cc1F (single isomer, unassigned) [Compound 857B, 1-(5-chloro-3-fluoropyridin-2-yl)-3-(hydroxymethyl)-4-(4-(trifluoromethyl)benzyl)piperazine-2,5-dione]
23 | 0.6 µM | CCOC(=O)C1CC2(C1)C(=O)N(c1ncc(Cl)cc1F)CC(=O)N2Cc1ccc(C(F)(F)F)cc1 (single isomer, unassigned) [Compound 859A, ethyl 8-(5-chloro-3-fluoropyridin-2-yl)-6,9-dioxo-5-(4-(trifluoromethyl)benzyl)-5,8-diazaspiro[3.5]nonane-2-carboxylate]
24 | 0.3 µM | CCOC(=O)C1CC2(C1)C(=O)N(c1ncc(Cl)cc1F)CC(=O)N2Cc1ccc(C(F)(F)F)cc1 (single isomer, unassigned) [Compound 859B, ethyl 8-(5-chloro-3-fluoropyridin-2-yl)-6,9-dioxo-5-(4-(trifluoromethyl)benzyl)-5,8-diazaspiro[3.5]nonane-2-carboxylate]
25 | 5.8 µM | O=C1C(C2COC2)N(Cc2ccc(C(F)(F)F)cc2)C(=O)CN1c1ncc(Cl)cc1F (single isomer, unassigned) [Compound 861B, 1-(5-chloro-3-fluoropyridin-2-yl)-3-(oxetan-3-yl)-4-(4-(trifluoromethyl)benzyl)piperazine-2,5-dione]
26 | 4.4 µM | O=C1C(C2CC(O)C2)N(Cc2ccc(F)cc2)C(=O)CN1c1ccc(Cl)cc1F (single isomer, unassigned) [Compound 866A, 1-(4-chloro-2-fluorophenyl)-4-(4-fluorobenzyl)-3-(3-hydroxycyclobutyl)piperazine-2,5-dione]

Row | Structure (SMILES) | CDMF75 IC15
27 | CC(C)N1CC(=O)N(Cc2ccc(Cl)cc2)C(c2ccc(Cl)cc2)C1=O (racemic) [Compound 288, 3-(4-chlorophenyl)-4-[(4-chlorophenyl)methyl]-1-(propan-2-yl)piperazine-2,5-dione] | 1.8 µM
28 | CC(C)N1CC(=O)N(Cc2ccc(Cl)cc2)C(c2ccc(Cl)cc2)C1=O (single isomer, unassigned) [Compound 288B, 3-(4-chlorophenyl)-4-[(4-chlorophenyl)methyl]-1-(propan-2-yl)piperazine-2,5-dione] | >39 µM
